These are literature values, as cited in patent publication US20070275871A1 (BIOREXIS TECHNOLOGY, INC., priority 2003, published 2007).

Like-named read-outs stand apart in the source and are kept apart here.

The target of data set [1] is T1, EPO receptor (Homo sapiens, UniProt P19235).
T1 sequence (P19235 25-508): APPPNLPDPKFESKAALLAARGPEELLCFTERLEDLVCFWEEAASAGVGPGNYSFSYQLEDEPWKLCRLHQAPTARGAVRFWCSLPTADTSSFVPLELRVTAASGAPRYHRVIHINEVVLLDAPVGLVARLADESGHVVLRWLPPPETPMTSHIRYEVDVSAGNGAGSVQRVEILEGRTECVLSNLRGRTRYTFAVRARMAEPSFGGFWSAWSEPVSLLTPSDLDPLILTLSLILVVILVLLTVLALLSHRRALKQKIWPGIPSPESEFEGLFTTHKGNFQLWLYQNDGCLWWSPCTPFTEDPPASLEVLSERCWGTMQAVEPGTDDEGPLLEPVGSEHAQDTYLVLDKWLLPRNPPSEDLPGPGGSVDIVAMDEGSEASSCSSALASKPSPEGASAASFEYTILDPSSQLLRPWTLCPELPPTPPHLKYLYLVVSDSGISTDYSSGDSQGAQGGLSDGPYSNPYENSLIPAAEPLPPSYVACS
As to conditions: N- and C-terminal deletions of EMP-1.

In data set [2] the target is T2, extracellular domain of EPO receptor (Homo sapiens, UniProt P19235).
T2 sequence (P19235 25-250 limits assumed): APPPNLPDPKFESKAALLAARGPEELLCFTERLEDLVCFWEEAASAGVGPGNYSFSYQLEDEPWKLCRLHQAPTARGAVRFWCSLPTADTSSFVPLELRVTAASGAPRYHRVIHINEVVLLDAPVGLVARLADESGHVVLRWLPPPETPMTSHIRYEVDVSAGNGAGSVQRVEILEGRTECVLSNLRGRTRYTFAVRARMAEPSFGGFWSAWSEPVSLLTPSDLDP

The target in data set [3] is T1, EPO receptor.
In data set [4] the test system is cell lines engineered to be responsive to EPO.
Data set [5] concerns nascent red blood cell production. The note with it: mice, two different in vivo assays of nascent red blood cell production.

For the sequence YSCHFGPLTWVCK [EMP-20], the “activity in the assays for EPO mimetic action” value with EPO receptor [1] is “minimal active peptide”.

In general, Kd refers to a measure of binding affinity in units of concentration. On to CRIGPITWVC, for which the dissociation constant (Kd) in data set [2] (EPO domain-weak-binding consensus sequence, read-out: Kd) is 10 mM.

For GGTYSCHFGPLTWVCKPQGG [EMP-1], the Kd in data set [2] (read-out: affinity (Kd)) was 0.0002 mM. Moreover, on EPO receptor [3], the “competition with EPO in receptor binding assays” value is “competes with EPO”. For the same sequence, the cellular proliferation result in data set [4] is listed as “cause cellular proliferation”. Further, the “cascade of phosphorylation events and cell cycle progression” value with EPO responsive cells was “induce a similar cascade of phosphorylation events and cell cycle progression”. Further, the erythropoietic effects entry in data set [5] is “significant erythropoietic effects”.
